{
  "source": "paper PMC5218480",
  "about": "(PLoS ONE, 2017)",
  "system": "MV-4-11 cells",
  "test": "Gene expression microarray analysis (Affymetrix PrimeView) and GSEA",
  "format": "cell-based, human",
  "set-up": "RFU PODN (11730768_x_at) / Fold change /veh PODN (11730768_x_at) / RFU LINC00158 (11744669_a_at) / Fold change /veh LINC00158 (11744669_a_at) / RFU DUSP10 (11751237_a_at) / Fold change /veh DUSP10 (11751237_a_at) / RFU ID3 (11757404_x_at) / Fold change /veh ID3 (11757404_x_at) / RFU PLEKHG5 (11737974_s_at) / Fold change /veh PLEKHG5 (11737974_s_at) / RFU LRRC4B (11730491_at) / Fold change /veh LRRC4B (11730491_at) / RFU GIMAP4 (11747438_a_at) / Fold change /veh GIMAP4 (11747438_a_at) / RFU KRT8 (11758183_x_at) / Fold change /veh KRT8 (11758183_x_at) / RFU CNN1 (11734310_a_at) / Fold change /veh CNN1 (11734310_a_at) / RFU VPS37D (11726825_at) / Fold change /veh VPS37D (11726825_at) / RFU C10orf10 (11716522_x_at) / Fold change /veh C10orf10 (11716522_x_at) / RFU KIR2DL2 /// KIR2DL4 /// KIR2DL5A /// KIR2DL5B /// KIR2DS1 /// KIR2DS2 /// KIR2DS3 /// KIR2DS4 /// KIR3DL3 /// KIR3DL3 /// KIR3DS1 (11738374_at) / Fold change /veh KIR2DL2 /// KIR2DL4 /// KIR2DL5A /// KIR2DL5B /// KIR2DS1 /// KIR2DS2 /// KIR2DS3 /// KIR2DS4 /// KIR3DL3 /// KIR3DL3 /// KIR3DS1 (11738374_at) / RFU C1QL1 (11718748_at) / Fold change /veh C1QL1 (11718748_at) / RFU TMPRSS4 (11747572_a_at) / Fold change /veh TMPRSS4 (11747572_a_at) / RFU HAMP (11756126_x_at) / Fold change /veh HAMP (11756126_x_at) / RFU RNFT2 (11725882_a_at) / Fold change /veh RNFT2 (11725882_a_at) / RFU NR4A2 (11747474_a_at) / Fold change /veh NR4A2 (11747474_a_at) / RFU ABCC12 (11746883_a_at) / Fold change /veh ABCC12 (11746883_a_at) / RFU TMEM136 (11760407_x_at) / Fold change /veh TMEM136 (11760407_x_at) / RFU CLDN22 /// WWC2 (11732394_at) / Fold change /veh CLDN22 /// WWC2 (11732394_at) / RFU HLA-DPB1 (11760878_x_at) / Fold change /veh HLA-DPB1 (11760878_x_at) / RFU SPINT1 (11716480_a_at) / Fold change /veh SPINT1 (11716480_a_at) / RFU GAP43 (11754022_s_at) / Fold change /veh GAP43 (11754022_s_at) / RFU A4GNT (11735810_at) / Fold change /veh A4GNT (11735810_at) / RFU PRB3 (11715151_x_at) / Fold change /veh PRB3 (11715151_x_at) / RFU TUBB4B (11761932_at) / Fold change /veh TUBB4B (11761932_at) / RFU CAPN14 (11732068_a_at) / Fold change /veh CAPN14 (11732068_a_at) / RFU TMCC2 (11721928_a_at) / Fold change /veh TMCC2 (11721928_a_at) / RFU IRGQ (11745062_a_at) / Fold change /veh IRGQ (11745062_a_at) / RFU FAM174B (11720279_a_at) / Fold change /veh FAM174B (11720279_a_at) / RFU TMPRSS4 (11748680_a_at) / Fold change /veh TMPRSS4 (11748680_a_at) / RFU FAM212B (11763350_a_at) / Fold change /veh FAM212B (11763350_a_at) / RFU PLEKHG5 (11743358_a_at) / Fold change /veh PLEKHG5 (11743358_a_at) / RFU ZSCAN30 (11745921_a_at) / Fold change /veh ZSCAN30 (11745921_a_at) / RFU CMKLR1 (11741424_a_at) / Fold change /veh CMKLR1 (11741424_a_at) / RFU LOC101060620 /// MAPK8IP1 (11723275_at) / Fold change /veh LOC101060620 /// MAPK8IP1 (11723275_at) / RFU SPTSSB (11747773_x_at) / Fold change /veh SPTSSB (11747773_x_at) / RFU PRSS12 (11739890_at) / Fold change /veh PRSS12 (11739890_at) / RFU BIN1 (11741810_x_at) / Fold change /veh BIN1 (11741810_x_at) / RFU WNT11 (11732464_a_at) / Fold change /veh WNT11 (11732464_a_at) / RFU C10orf10 (11716521_a_at) / Fold change /veh C10orf10 (11716521_a_at) / RFU C5orf56 (11738089_at) / Fold change /veh C5orf56 (11738089_at) / RFU CYB561 (11721691_x_at) / Fold change /veh CYB561 (11721691_x_at) / RFU ANKRD19P (11752326_a_at) / Fold change /veh ANKRD19P (11752326_a_at) / RFU OR2T12 /// OR2T33 /// OR2T8 (11738714_s_at) / Fold change /veh OR2T12 /// OR2T33 /// OR2T8 (11738714_s_at) / RFU VCAN (11748164_a_at) / Fold change /veh VCAN (11748164_a_at) / RFU JSRP1 (11732532_at) / Fold change /veh JSRP1 (11732532_at) / RFU KRTAP10-11 (11738290_x_at) / Fold change /veh KRTAP10-11 (11738290_x_at) / RFU MYO3A (11730013_a_at) / Fold change /veh MYO3A (11730013_a_at) / RFU EBF3 (11725865_a_at) / Fold change /veh EBF3 (11725865_a_at) / RFU CAMK2N1 (11719241_x_at) / Fold change /veh CAMK2N1 (11719241_x_at) / RFU C5orf56 (11738088_a_at) / Fold change /veh C5orf56 (11738088_a_at) / RFU OLFML3 (11715873_a_at) / Fold change /veh OLFML3 (11715873_a_at) / RFU LOC100653217 /// NTM (11731650_a_at) / Fold change /veh LOC100653217 /// NTM (11731650_a_at) / RFU MAPK11 (11762145_a_at) / Fold change /veh MAPK11 (11762145_a_at) / RFU FIZ1 (11724087_x_at) / Fold change /veh FIZ1 (11724087_x_at) / RFU OASL (11726364_x_at) / Fold change /veh OASL (11726364_x_at) / RFU SOX15 (11748057_x_at) / Fold change /veh SOX15 (11748057_x_at) / RFU CD79A (11719716_a_at) / Fold change /veh CD79A (11719716_a_at) / RFU HIST1H1D (11736915_at) / Fold change /veh HIST1H1D (11736915_at) / RFU CASKIN2 (11723855_a_at) / Fold change /veh CASKIN2 (11723855_a_at) / RFU LOC730098 (11760151_x_at) / Fold change /veh LOC730098 (11760151_x_at) / RFU OR4N2 (11742367_at) / Fold change /veh OR4N2 (11742367_at) / RFU PRRT2 (11749266_a_at) / Fold change /veh PRRT2 (11749266_a_at) / RFU SNX32 (11753110_a_at) / Fold change /veh SNX32 (11753110_a_at) / RFU CDHR5 (11726645_a_at) / Fold change /veh CDHR5 (11726645_a_at) / RFU RCAN1 (11760418_a_at) / Fold change /veh RCAN1 (11760418_a_at) / RFU FAM167A (11723789_a_at) / Fold change /veh FAM167A (11723789_a_at) / RFU FAM26E (11764081_at) / Fold change /veh FAM26E (11764081_at) / RFU ISYNA1 (11749810_s_at) / Fold change /veh ISYNA1 (11749810_s_at) / RFU ACY1 (11761880_at) / Fold change /veh ACY1 (11761880_at) / RFU 11764098_at / Fold change /veh 11764098_at / RFU SAMD14 (11745864_x_at) / Fold change /veh SAMD14 (11745864_x_at) / RFU NPB (11741838_a_at) / Fold change /veh NPB (11741838_a_at) / RFU TMPRSS6 (11731388_a_at) / Fold change /veh TMPRSS6 (11731388_a_at) / RFU KRTAP10-2 (11738614_at) / Fold change /veh KRTAP10-2 (11738614_at) / RFU ARHGAP8 /// PRR5-ARHGAP8 (11727945_x_at) / Fold change /veh ARHGAP8 /// PRR5-ARHGAP8 (11727945_x_at) / RFU KRTAP5-7 /// NADSYN1 (11734609_at) / Fold change /veh KRTAP5-7 /// NADSYN1 (11734609_at) / RFU RASL12 (11751679_a_at) / Fold change /veh RASL12 (11751679_a_at) / RFU CDKN2B (11736163_a_at) / Fold change /veh CDKN2B (11736163_a_at) / RFU PRF1 (11729649_at) / Fold change /veh PRF1 (11729649_at) / RFU, ZNF638 /// ZNF638-IT1 / Fold change vs veh, ZNF638 /// ZNF638-IT1 / RFU, PANK3 / Fold change vs veh, PANK3 / RFU, SH3YL1 / Fold change vs veh, SH3YL1 / RFU, ZEB2 / Fold change vs veh, ZEB2 / RFU, NRIP1 / Fold change vs veh, NRIP1 / RFU, PTTG1IP / Fold change vs veh, PTTG1IP / RFU, CAPN2 / Fold change vs veh, CAPN2 / RFU, MED14 / Fold change vs veh, MED14 / RFU, SNORA58 / Fold change vs veh, SNORA58 / RFU, C1orf63 / Fold change vs veh, C1orf63 / RFU, LRRFIP1 / Fold change vs veh, LRRFIP1 / RFU, NDUFAF7 / Fold change vs veh, NDUFAF7 / RFU, SLC12A2 / Fold change vs veh, SLC12A2 / RFU, IBTK / Fold change vs veh, IBTK / RFU, ESF1 / Fold change vs veh, ESF1 / Fold change vs veh, TMEM50B / RFU, TAOK1 / Fold change vs veh, TAOK1 / RFU, ACBD3 / Fold change vs veh, ACBD3 / RFU, TMA16 / Fold change vs veh, TMA16 / RFU, RWDD3 / Fold change vs veh, RWDD3 / RFU, BCAT1 / Fold change vs veh, BCAT1 / RFU, EDEM3 / Fold change vs veh, EDEM3 / RFU, TMEM33 / Fold change vs veh, TMEM33 / RFU, WDR75 / Fold change vs veh, WDR75 / RFU, AHCTF1 / Fold change vs veh, AHCTF1 / RFU, TFRC / Fold change vs veh, TFRC / RFU, ZDHHC17 / Fold change vs veh, ZDHHC17 / RFU, NOM1 / Fold change vs veh, NOM1 / RFU, ARL8B / Fold change vs veh, ARL8B / RFU, ZBTB11 / Fold change vs veh, ZBTB11 / RFU, TAMM41 / Fold change vs veh, TAMM41 / RFU, KIAA1704 /// LOC100996395 / Fold change vs veh, KIAA1704 /// LOC100996395 / RFU, ING1 / Fold change vs veh, ING1 / RFU, TRMT61B / Fold change vs veh, TRMT61B / RFU, FUBP3 / Fold change vs veh, FUBP3 / RFU, TP53 / Fold change vs veh, TP53 / RFU, TNKS2 / Fold change vs veh, TNKS2 / RFU, ZFP14 / Fold change vs veh, ZFP14 / RFU, ACTR2 / Fold change vs veh, ACTR2 / RFU, PPP3R1 / Fold change vs veh, PPP3R1 / RFU, PIK3R1 / Fold change vs veh, PIK3R1 / RFU, HNRNPA1 / Fold change vs veh, HNRNPA1 / RFU, RNF170 / Fold change vs veh, RNF170 / RFU, ZNF28 / Fold change vs veh, ZNF28 / RFU, RNGTT / Fold change vs veh, RNGTT / RFU, OGT / Fold change vs veh, OGT / RFU, BRD1 / Fold change vs veh, BRD1 / RFU, MARS / Fold change vs veh, MARS / RFU, ZNF655 / Fold change vs veh, ZNF655 / RFU, FAHD1 / Fold change vs veh, FAHD1 / RFU, BDP1 / Fold change vs veh, BDP1 / RFU, LRRCC1 / Fold change vs veh, LRRCC1 / RFU, ARID1A / Fold change vs veh, ARID1A / RFU, ZNF146 / Fold change vs veh, ZNF146 / RFU, ZNF330 / Fold change vs veh, ZNF330 / RFU, GPN3 / Fold change vs veh, GPN3 / RFU, C9orf123 / Fold change vs veh, C9orf123 / RFU, N4BP2L2 / Fold change vs veh, N4BP2L2 / RFU, ARFIP1 / Fold change vs veh, ARFIP1 / RFU, FAM179B / Fold change vs veh, FAM179B / RFU, BCL10 / Fold change vs veh, BCL10 / RFU, UHRF1BP1L / Fold change vs veh, UHRF1BP1L / RFU, BET1 / Fold change vs veh, BET1 / RFU, CNOT2 / Fold change vs veh, CNOT2 / RFU, ZNF268 / Fold change vs veh, ZNF268 / Fold change vs veh, ZNF507 / RFU, DGCR2 / Fold change vs veh, DGCR2 / RFU, WDSUB1 / Fold change vs veh, WDSUB1 / Fold change vs veh, HSP90B1 /// MIR3652 / RFU, ADSS / Fold change vs veh, ADSS / RFU, GK / Fold change vs veh, GK / RFU, ZNF148 / Fold change vs veh, ZNF148 / RFU, TAF9 / Fold change vs veh, TAF9 / RFU, SLC1A5 / Fold change vs veh, SLC1A5 / RFU, SLMO2 / Fold change vs veh, SLMO2 / RFU, ABCC4 / Fold change vs veh, ABCC4 / RFU, LOC101060439 /// RAP1B / Fold change vs veh, LOC101060439 /// RAP1B / RFU, RFX7 / Fold change vs veh, RFX7 / RFU, GTPBP10 / Fold change vs veh, GTPBP10 / RFU, CNEP1R1 / Fold change vs veh, CNEP1R1 / RFU, BIVM-ERCC5 /// ERCC5 / Fold change vs veh, BIVM-ERCC5 /// ERCC5 / RFU, ILF3 / Fold change vs veh, ILF3 / RFU 11762660_at / Fold change /veh 11762660_at / RFU VCAN (11757783_s_at) / Fold change /veh VCAN (11757783_s_at) / RFU DDX43 (11728927_at) / Fold change /veh DDX43 (11728927_at) / RFU KRT8 (11758188_x_at) / Fold change /veh KRT8 (11758188_x_at) / RFU NKD1 (11759106_at) / Fold change /veh NKD1 (11759106_at) / RFU SRD5A1 (11742802_a_at) / Fold change /veh SRD5A1 (11742802_a_at) / RFU TPSAB1 /// TPSB2 (11721975_s_at) / Fold change /veh TPSAB1 /// TPSB2 (11721975_s_at) / RFU GSTM3 (11746129_a_at) / Fold change /veh GSTM3 (11746129_a_at) / RFU IL23R (11737362_x_at) / Fold change /veh IL23R (11737362_x_at) / RFU TMEM51 (11727254_a_at) / Fold change /veh TMEM51 (11727254_a_at) / RFU PIWIL2 (11732686_x_at) / Fold change /veh PIWIL2 (11732686_x_at) / RFU ORM1 (11744905_x_at) / Fold change /veh ORM1 (11744905_x_at) / RFU CCDC152 (11743942_at) / Fold change /veh CCDC152 (11743942_at) / RFU ECM1 (11717891_a_at) / Fold change /veh ECM1 (11717891_a_at) / RFU IL23R (11748794_a_at) / Fold change /veh IL23R (11748794_a_at) / RFU TNFAIP8L3 (11732012_x_at) / Fold change /veh TNFAIP8L3 (11732012_x_at) / RFU MBOAT4 (11741988_at) / Fold change /veh MBOAT4 (11741988_at) / RFU 11764193_at / Fold change /veh 11764193_at / RFU TMEM53 (11763286_at) / Fold change /veh TMEM53 (11763286_at) / RFU MAGEB2 (11727129_at) / Fold change /veh MAGEB2 (11727129_at) / RFU TMEM200A (11744735_a_at) / Fold change /veh TMEM200A (11744735_a_at) / RFU CCDC152 (11751479_a_at) / Fold change /veh CCDC152 (11751479_a_at) / RFU FAM211A (11726209_a_at) / Fold change /veh FAM211A (11726209_a_at) / RFU RGS16 (11746705_a_at) / Fold change /veh RGS16 (11746705_a_at) / RFU VCAN (11755009_s_at) / Fold change /veh VCAN (11755009_s_at) / RFU RHOB (11743442_s_at) / Fold change /veh RHOB (11743442_s_at) / RFU RGS16 (11720943_a_at) / Fold change /veh RGS16 (11720943_a_at) / RFU RGS16 (11720944_at) / Fold change /veh RGS16 (11720944_at) / RFU, VPS4B / Fold change vs veh, VPS4B / RFU, CREB1 / Fold change vs veh, CREB1 / RFU, DNAJC13 / Fold change vs veh, DNAJC13 / RFU, GNAQ / Fold change vs veh, GNAQ / RFU, CDK5R1 / Fold change vs veh, CDK5R1 / RFU, ZRANB3 / Fold change vs veh, ZRANB3 / RFU, CUL4A / Fold change vs veh, CUL4A / RFU, CCNY / Fold change vs veh, CCNY / RFU, UFL1 / Fold change vs veh, UFL1 / RFU, COG3 / Fold change vs veh, COG3 / RFU, DIAPH2 / Fold change vs veh, DIAPH2 / RFU, SKA2 / Fold change vs veh, SKA2 / RFU, AFF3 / Fold change vs veh, AFF3 / RFU, LMF1 / Fold change vs veh, LMF1 / RFU, IPO11 / Fold change vs veh, IPO11 / RFU, DFFB / Fold change vs veh, DFFB / RFU, FOXP1 / Fold change vs veh, FOXP1 / RFU, CARD8 / Fold change vs veh, CARD8 / RFU, STRN3 / Fold change vs veh, STRN3 / RFU, ADK / Fold change vs veh, ADK / RFU, RASSF2 / Fold change vs veh, RASSF2 / RFU, WIPF1 / Fold change vs veh, WIPF1 / RFU, LARP1B / Fold change vs veh, LARP1B / RFU, RASA1 / Fold change vs veh, RASA1 / RFU, RB1 / Fold change vs veh, RB1 / RFU, PPFIA1 / Fold change vs veh, PPFIA1 / RFU, MAT2A / Fold change vs veh, MAT2A / RFU, CCT5 / Fold change vs veh, CCT5 / RFU, WDR92 / Fold change vs veh, WDR92 / RFU, CUX1 / Fold change vs veh, CUX1 / RFU, TTC7A / Fold change vs veh, TTC7A / RFU, TMEM135 / Fold change vs veh, TMEM135 / RFU, DEPTOR / Fold change vs veh, DEPTOR / RFU, CPM / Fold change vs veh, CPM / RFU, DNAJB6 / Fold change vs veh, DNAJB6 / RFU, CACNA2D3 / Fold change vs veh, CACNA2D3 / RFU, DTX4 / Fold change vs veh, DTX4 / RFU, TFCP2 / Fold change vs veh, TFCP2 / RFU, GMCL1 /// GMCL1P1 / Fold change vs veh, GMCL1 /// GMCL1P1 / RFU, AEBP2 / Fold change vs veh, AEBP2 / RFU, SNHG1 /// SNORD22 /// SNORD25 /// SNORD26 /// SNORD27 /// SNORD28 /// SNORD29 /// SNORD31 / Fold change vs veh, SNHG1 /// SNORD22 /// SNORD25 /// SNORD26 /// SNORD27 /// SNORD28 /// SNORD29 /// SNORD31 / Fold change (Aza/veh), C12orf56 (ProbeSet 11735607_a_at) / Fold change (ACY-1035/veh), C12orf56 (ProbeSet 11735607_a_at) / Fold change (Aza/veh), FGFR1OP (ProbeSet 11751329_s_at) / Fold change (ACY-1035/veh), FGFR1OP (ProbeSet 11751329_s_at) / Fold change (Aza/veh), VPS36 (ProbeSet 11739960_a_at) / Fold change (ACY-1035/veh), VPS36 (ProbeSet 11739960_a_at) / RFU SYPL1 (11715823_x_at) / Fold change /veh SYPL1 (11715823_x_at) / RFU IGFBP7 (11715501_s_at) / Fold change /veh IGFBP7 (11715501_s_at) / RFU REEP3 (11722064_at) / Fold change /veh REEP3 (11722064_at) / RFU IGLL1 (11728026_x_at) / Fold change /veh IGLL1 (11728026_x_at): dose or concentration left out as unconfirmed",
  "conditions": "gene FGFR1OP; Azacitidine vs DMSO; LIST F",
  "data": [
    {"smiles": "Nc1ncn([C@@H]2O[C@H](CO)[C@@H](O)[C@H]2O)c(=O)n1", "note": "[azacitidine]", "values": [
      {"measurement": "Fold change (Aza/veh), FGFR1OP (ProbeSet 11751329_s_at)", "result": 0.95}
    ]}
  ]
}
